Data published in PMC1764755, “Human antimicrobial peptide LL-37 is present in atherosclerotic plaques and induces death of vascular smooth muscle cells: a laboratory study” (BMC Cardiovascular Disorders, 2006).

Legend:
Type in all cases: cell-based
[1] = test system: rat aorta smooth muscle cells; assay: Microscopy of cultured cells (Nomarski, DAPI, FITC-annexin V); settings: for morphological changes: serum free DMEM
Method: Rat aorta smooth muscle cells were grown on methanol-cleansed coverslips in 6-well plates and incubated for 2 or 5 h in serum free DMEM with/without LL-37 (10 or 30 μg/ml) or camptothecin (5 μg/ml, Sigma-Aldrich). After culture, the coverslips were washed with ice-cold PBS containing 1 mM Ca^2+ and the cells were then stained at room temperature for 20 min with FITC-annexin V (20 μg/ml, Roche Molecular Biochemicals, Mannheim, Germany) and 4'6-diamino-2-phenyliondole dihydrochloride (DAPI) nucleic acid stain (100 nM, Molecular probes, Eugene, OR, USA). Thereafter, the cells were fixed with 1 % paraformaldehyde (Becton Dickinson, Bedford MA, U.S.A) in ice-cold PBS containing 1 mM Ca^2+. Fixation was initiated on ice for 15 min and continued at room temperature for 45 min. Cover slips were then mounted using ProLong AntiFade Reagent (Molecular Probes). Visual inspection and recording of images was performed using a Nikon Eclipse TE300 inverted fluorescence microscope equipped with a Hamamatsu C4742-95 cooled CCD camera, using a Plan Apochromat 60 × objective.

[2] = test system: caspase-3 activity in rat aorta smooth muscle cells; assay: Caspase-3 activity (fluorometric immunosorbent enzyme assay, FIENA); settings: LL-37 30 μg/ml, 1, 3 and 7 h, corrected for intact cells, n = 6, P < 0.05
Method: Confluent rat aorta smooth muscle cells cultured on 24-well plates were incubated for 1, 3 or 7 h in serum free DMEM in the absence (control) or presence of LL-37 (10 or 30 μg/ml). The caspase-3 activity was measured by using a fluorometric immunosorbent enzyme assay (FIENA, Roche Molecular Biochemicals) according to the manufacturer's instructions. Briefly, the caspase-3 from cellular lysates was captured by immobilized monoclonal anti-caspase-3 antibodies followed by addition of a substrate that is cleaved by caspase-3 generating a fluorescent compound. Fluorescence was then measured at 400 nm excitation and 505 nm emission. […] The caspase-3 activity values were therefore corrected in order to correspond to the fraction of intact cells using the formula […]
Where VIC is the caspase-3 activity of intact cells, VC is the caspase-3 activity of the sample, VL is the LDH activity of the sample and VLT is the total LDH activity of lysed cells. The caspase-3 activity is expressed as % of untreated controls.

[3] = test system: human aortic smooth muscle cells; assay: Internucleosomal DNA fragmentation (Cell Death Detection ELISA); settings: LL-37 30 μg/ml, 16 h, n = 7, P < 0.05
Method: (§1) Confluent rat or human aorta smooth muscle cells cultured on 24-well plates were incubated in serum free DMEM for 16 h in the absence (control) or presence of LL-37 (10 and 30 μg/ml). Internucleosomal DNA fragmentation was measured using a Cell Death Detection ELISA Kit (Roche Molecular Biochemicals) according to the manufacturer's instructions. In short, the cells were lysed in the culture wells and the DNA fragments in the lysate were bound to a microtiter plate coated with monoclonal anti-histone antibodies. The bound DNA fragments were then detected by peroxidase-conjugated monoclonal anti-DNA antibodies and 2,2'-azino-di- [3-ethylbenzthiazoline sulfonate]. Optical density was measured at 415 nm and is expressed as % of untreated controls.

[4] = test system: rat aorta smooth muscle cells; assay: as above; settings: 16 h, n = 7, P < 0.05
Method: as §1

[5] = test system: rat aorta smooth muscle cells; assay: LDH release assay; settings: LL-37 30 μg/ml, 1, 3 and 7 h, n = 7, P < 0.05
Method: Confluent rat aorta smooth muscle cells cultured on 24-well plates were incubated for 1, 3, or 7 h in serum free DMEM in the absence (control) or presence of LL-37 (10 or 30 μg/ml). The lactate dehydrogenase (LDH) activity released into the medium was measured by using the in vitro toxicology assay kit (Tox-7, Sigma-Aldrich) according to the manufacturer's instructions. In short, the medium was centrifuged at 2000 × g for 4 min. The LDH in the supernatants converted a tetrazolium dye, which was measured spectrophotometrically at 490 nm. The LDH activity is expressed as % of total LDH activity of lysed cells.

[6] = test system: rat aorta smooth muscle cells; assay: Flow cytometry, FITC-annexin V / propidium iodide; settings: LL-37 30 μg/ml
Method: Rat aorta smooth muscle cells were harvested from culture plates using trypsin/EDTA and washed in PBS once followed by a 2-h incubation in bicarbonate free MEM at 37°C using gentle end-over-end rotation. […] Staining was performed for 20 min on ice with FITC-annexin V (30 μg/ml) and propidium iodide (30 μg/ml, BD Pharmingen, San Diego, CA, USA) in calcium-containing PBS. Fluorescence-activated cell sorter (FACS) analysis was performed immediately (Becton Dickinson FACS Calibur instrument). 10,000 cells/sample were counted, and results were evaluated by using the Cell Quest software (Becton Dickinson). The same protocol was used for staining of human neutrophils incubated with LL-37 (30 μg/ml) for 30 or 120 min.

[7] = test system: human neutrophils; assay: Flow cytometry, FITC-annexin V / propidium iodide; settings: LL-37 30 μg/ml, 30 and 120 minutes, not shown
Method: Human neutrophils were isolated from heparinized blood from healthy donors using the Polymorph isolation kit (Nycomed Pharma AS Diagnostics, Oslo, Norway). Following the manufacturer's instructions, whole blood was layered carefully on neutrophil isolation medium and centrifuged at 400 × g for 30 min at room temperature. After centrifugation the following fractions were apparent: mononuclear cells, neutrophils and erythrocyte pellet. The polymorphonuclear leukocytes layer was suspended in PBS, followed by 10 min centrifugation at 350 × g; residual erythrocytes were removed by hypotonic lysis. After two washes in PBS with centrifugation for 5 min at 250 × g, the pellet was suspended in Minimum essential medium (MEM) and neutrophils were counted using a hemocytometer. The concentration of cells was adjusted to 10^7 cells/ml.
Rat aorta smooth muscle cells were harvested from culture plates using trypsin/EDTA and washed in PBS once followed by a 2-h incubation in bicarbonate free MEM at 37°C using gentle end-over-end rotation. […] Fluorescence-activated cell sorter (FACS) analysis was performed immediately (Becton Dickinson FACS Calibur instrument). 10,000 cells/sample were counted, and results were evaluated by using the Cell Quest software (Becton Dickinson). […]

Structure (SMILES)	morphological changes ([1]; LL-37 10 μg/ml, not shown)	FITC-annexin V binding of plasma membrane (microscopy) ([1]; LL-37 30 μg/ml, 2 or 5 h)	nuclear appearance (DAPI stain) ([1]; LL-37 30 μg/ml, 2 or 5 h)	morphological changes ([1]; LL-37 30 μg/ml, 2 or 5 h)	caspase-3 activity versus untreated controls [2]	DNA fragmentation compared to controls [3]	DNA fragmentation compared to controls ([4]; LL-37 10 μg/ml)	DNA fragmentation compared to controls ([4]; LL-37 30 μg/ml)	release of LDH into medium versus control [5]	increase in the propidium iodide fluorescence signal of the necrotic cells [6]	increase in FITC-annexin V fluorescence ([6]; 10 to 180 minutes) [fold]	leftmost peak of FITC-annexin V fluorescence histogram ([6]; 10 minutes)	leftmost peak of FITC-annexin V fluorescence histogram ([6]; 180 minutes) [units]	increase in propidium iodide staining of the viable cells ([6]; within 10 minutes) [fold]	staining with propidium iodide and FITC-annexin V [7]	cellular changes compared with those induced by LL-37 (30 μg/ml) ([1]; camptothecin 5 μg/ml, not shown)
CC[C@H](C)[C@H](NC(=O)[C@H](CCCCN)NC(=O)[C@H](CCC(=O)O)NC(=O)[C@H](CCCCN)NC(=O)[C@H](CO)NC(=O)[C@H](CCCCN)NC(=O)[C@H](CCCNC(=N)N)NC(=O)[C@H](Cc1ccccc1)NC(=O)[C@H](Cc1ccccc1)NC(=O)[C@H](CC(=O)O)NC(=O)CNC(=O)[C@H](CC(C)C)NC(=O)[C@@H](N)CC(C)C)C(=O)NCC(=O)N[C@@H](CCCCN)C(=O)N[C@@H](CCC(=O)O)C(=O)N[C@@H](Cc1ccccc1)C(=O)N[C@@H](CCCCN)C(=O)N[C@@H](CCCNC(=N)N)C(=O)N[C@H](C(=O)N[C@H](C(=O)N[C@@H](CCC(N)=O)C(=O)N[C@@H](CCCNC(=N)N)C(=O)N[C@H](C(=O)N[C@@H](CCCCN)C(=O)N[C@@H](CC(=O)O)C(=O)N[C@@H](Cc1ccccc1)C(=O)N[C@@H](CC(C)C)C(=O)N[C@@H](CCCNC(=N)N)C(=O)N[C@@H](CC(N)=O)C(=O)N[C@@H](CC(C)C)C(=O)N[C@H](C(=O)N1CCC[C@H]1C(=O)N[C@@H](CCCNC(=N)N)C(=O)N[C@H](C(=O)N[C@@H](CCC(=O)O)C(=O)N[C@@H](CO)C(=O)O)[C@@H](C)O)C(C)C)[C@@H](C)CC)C(C)C)[C@@H](C)CC [LL-37]	only small and inconsistent morphological changes	bound FITC-annexin V	nuclei of most cells appeared smaller with fragmented chromatin	progressive cell shrinkage and a rough appearance of the cell membrane	significant increase	statistically significant DNA fragmentation	statistically significant DNA fragmentation	statistically significant DNA fragmentation	significantly increased	about 1000 fold	15	about 2 fluorescence units	~30	10	weak staining	
CC[C@@]1(O)C(=O)OCc2c1cc1n(c2=O)Cc2cc3ccccc3nc2-1 [camptothecin]																similar
